From US11826399B2, “Chlorotoxin agents and uses thereof” (Eisai Inc., priority 2017, dated 2023)
Where “and” joins values, the source holds several entries; their conditions need not be identical. Equal values may be shown once.

Assay: Plasma and tissue distribution of Cryptophycin Payload and Cryptophycin Metabolite 1 after Cryptophycin Payload alone or with CTX in PC-3 xenograft nude mice (LC-MS/MS)
Format: in vivo, mouse
Protocol: For the present experiment, materials, methods, drugs and model were as described in Example 21. […] Following intravenous administration, whole blood samples were collected at predetermined time points via cardiac puncture (n=3 mice per time point). Blood samples were centrifuged to obtain plasma and subsequently stored at […] or lower pending analysis. Additionally, at each time point, kidney, liver, small intestine, brain, heart, and tumor were harvested by removing entire specimen from surrounding tissues (only a portion of liver and small intestine were removed). After removal, tissues were rinsed with normal saline solution (contents of small intestine were emptied) and blotted dry with clean adsorptive tissue. Once dried, the specimens were weighed and stored at −20° C. or lower pending analysis. […] Pharmacokinetic (PK) parameters were calculated. Mean plasma and tissue concentrations were used to calculate mean PK parameters. Skin and skeletal muscle which were not assessed due to difficulty of homogenization.
Vehicle for single dose group was 10% ethanol, 5% Tween 80, 85% saline. Vehicle for combination treatment was 5% ethanol, 2.5% Tween 80, 92.5% saline.

[1] = Brain, Payload 0.4 mg/kg + CTX 16 mg/kg IV
[2] = Brain, Payload 0.4 mg/kg IV alone
[3] = Heart, Payload 0.4 mg/kg + CTX 16 mg/kg IV
[4] = Heart, Payload 0.4 mg/kg IV alone
[5] = Kidney, Payload 0.4 mg/kg + CTX 16 mg/kg IV
[6] = Kidney, Payload 0.4 mg/kg IV alone
[7] = Liver, Payload 0.4 mg/kg + CTX 16 mg/kg IV
[8] = Liver, Payload 0.4 mg/kg IV alone
[9] = Payload 0.4 mg/kg + CTX 16 mg/kg IV, 0.083 h
[10] = Payload 0.4 mg/kg + CTX 16 mg/kg IV, 0.5 h
[11] = Payload 0.4 mg/kg + CTX 16 mg/kg IV, 1 h
[12] = Payload 0.4 mg/kg + CTX 16 mg/kg IV, 2 h
[13] = Payload 0.4 mg/kg + CTX 16 mg/kg IV, 6 h
[14] = Payload 0.4 mg/kg + CTX 16 mg/kg IV, 24 h
[15] = Payload 0.4 mg/kg IV alone, 0.083 h
[16] = Payload 0.4 mg/kg IV alone, 0.5 h
[17] = Payload 0.4 mg/kg IV alone, 1 h
[18] = Payload 0.4 mg/kg IV alone, 2 h
[19] = Payload 0.4 mg/kg IV alone, 6 h
[20] = Payload 0.4 mg/kg IV alone, 24 h
[21] = Plasma, Payload 0.4 mg/kg + CTX 16 mg/kg IV
[22] = Plasma, Payload 0.4 mg/kg IV alone
[23] = Small Intestine, Payload 0.4 mg/kg + CTX 16 mg/kg IV
[24] = Small Intestine, Payload 0.4 mg/kg IV alone
[25] = Tumor, Payload 0.4 mg/kg + CTX 16 mg/kg IV
[26] = Tumor, Payload 0.4 mg/kg IV alone

## CCCCNC(=O)Cc1ccccc1SSC(C)(C)CCN1CCN(Cc2ccc(C3OC3C(C)C3CC=CC(=O)NC(Cc4ccc(OC)c(Cl)c4)C(=O)NCC(C)(C)C(=O)NC(CC(C)C)C(=O)O3)cc2)CC1 (stereo not drawn) [Cryptophycin Payload]
[1]
  AUC(0-t) of Cryptophycin Payload: 3.69 ng·h/g
  tmax of Cryptophycin Payload: 4.8 min
Brain, Payload 0.4 mg/kg + CTX 16 mg/kg IV, AUC0-2 h tissue/AUC0-2 h plasma
  TPI of Cryptophycin Payload: 0.0315 mL/g and 0.0315^d mL/g
[2]
  AUC(0-inf) of Cryptophycin Payload: 3.57 ng·h/g
  AUC(0-t) of Cryptophycin Payload: 3.02 ng·h/g
  t1/2 of Cryptophycin Payload: 56.5 min
  tmax of Cryptophycin Payload: 4.98 min and 4.8 min
Brain, Payload 0.4 mg/kg IV alone, AUC0-2 h tissue/AUC0-2 h plasma
  TPI of Cryptophycin Payload: 0.0208 mL/g and 0.0208^d mL/g
[3]
  AUC(0-inf) of Cryptophycin Payload: 62.0 ng·h/g
  AUC(0-t) of Cryptophycin Payload: 59.2 ng·h/g
  t1/2 of Cryptophycin Payload: 86.4 min
  tmax of Cryptophycin Payload: 4.8 min
Heart, Payload 0.4 mg/kg + CTX 16 mg/kg IV, AUC0-inf tissue/AUC0-inf plasma
  TPI of Cryptophycin Payload: 0.481 mL/g
[4]
  AUC(0-inf) of Cryptophycin Payload: 38.9 ng·h/g
  AUC(0-t) of Cryptophycin Payload: 36.8 ng·h/g
  t1/2 of Cryptophycin Payload: 103 min
  tmax of Cryptophycin Payload: 4.98 min and 4.8 min
Heart, Payload 0.4 mg/kg IV alone, AUC0-inf tissue/AUC0-inf plasma
  TPI of Cryptophycin Payload: 0.253 mL/g
[5]
  AUC(0-inf) of Cryptophycin Payload: 1230 ng·h/g
  AUC(0-t) of Cryptophycin Payload: 1210 ng·h/g
  t1/2 of Cryptophycin Payload: 251 min
  tmax of Cryptophycin Payload: 30 min
Kidney, Payload 0.4 mg/kg + CTX 16 mg/kg IV, AUC0-inf tissue/AUC0-inf plasma
  TPI of Cryptophycin Payload: 9.53 mL/g
[6]
  AUC(0-inf) of Cryptophycin Payload: 826 ng·h/g
  AUC(0-t) of Cryptophycin Payload: 804 ng·h/g
  t1/2 of Cryptophycin Payload: 282 min
  tmax of Cryptophycin Payload: 4.98 min and 4.8 min
Kidney, Payload 0.4 mg/kg IV alone, AUC0-inf tissue/AUC0-inf plasma
  TPI of Cryptophycin Payload: 5.36 mL/g
[7]
  AUC(0-t) of Cryptophycin Payload: 15.1 ng·h/g
  tmax of Cryptophycin Payload: 60 min
Liver, Payload 0.4 mg/kg + CTX 16 mg/kg IV, AUC0-6 h tissue/AUC0-6 h plasma
  TPI of Cryptophycin Payload: 0.118 mL/g and 0.118^c mL/g
[8]
  AUC(0-t) of Cryptophycin Payload: 9.65 ng·h/g
  tmax of Cryptophycin Payload: 4.98 min and 4.8 min
Liver, Payload 0.4 mg/kg IV alone, AUC0-6 h tissue/AUC0-6 h plasma
  TPI of Cryptophycin Payload: 0.0631 mL/g and 0.0631^c mL/g
[9]
  Concentration of Cryptophycin Payload, Brain, Mean: 3.97 ng/g
  Concentration of Cryptophycin Payload, Heart, Mean: 47.3 ng/g
  Concentration of Cryptophycin Payload, Kidney, Mean: 389 ng/g
  Concentration of Cryptophycin Payload, Liver, Mean: 3.89 ng/g
  Concentration of Cryptophycin Payload, Plasma, Mean: 268 ng/mL
  Concentration of Cryptophycin Payload, Small Intestine, Mean: 19.8 ng/g
  Concentration of Cryptophycin Payload, Tumor, Mean: 12.5 ng/g
[10]
  Concentration of Cryptophycin Payload, Brain, Mean: 2.09 ng/g
  Concentration of Cryptophycin Payload, Heart, Mean: 41.3 ng/g
  Concentration of Cryptophycin Payload, Kidney, Mean: 411 ng/g
  Concentration of Cryptophycin Payload, Liver, Mean: 7.13 ng/g
  Concentration of Cryptophycin Payload, Plasma, Mean: 37.9 ng/mL
  Concentration of Cryptophycin Payload, Small Intestine, Mean: 13.4 ng/g
  Concentration of Cryptophycin Payload, Tumor, Mean: 10.3 ng/g
[11]
  Concentration of Cryptophycin Payload, Brain, Mean: 2.07 ng/g
  Concentration of Cryptophycin Payload, Heart, Mean: 18.7 ng/g
  Concentration of Cryptophycin Payload, Kidney, Mean: 317 ng/g
  Concentration of Cryptophycin Payload, Liver, Mean: 7.13 ng/g
  Concentration of Cryptophycin Payload, Plasma, Mean: 43.8 ng/mL
  Concentration of Cryptophycin Payload, Small Intestine, Mean: 15.5 ng/g
  Concentration of Cryptophycin Payload, Tumor, Mean: 9.46 ng/g
[12]
  Concentration of Cryptophycin Payload, Brain, Mean: 0.703 ng/g
  Concentration of Cryptophycin Payload, Heart, Mean: 6.37 ng/g
  Concentration of Cryptophycin Payload, Kidney, Mean: 179 ng/g
  Concentration of Cryptophycin Payload, Liver, Mean: 2.13 ng/g
  Concentration of Cryptophycin Payload, Plasma, Mean: 7.53 ng/mL
  Concentration of Cryptophycin Payload, Small Intestine, Mean: 5.66 ng/g
  Concentration of Cryptophycin Payload, Tumor, Mean: 10.1 ng/g
[13]
  Concentration of Cryptophycin Payload, Brain, Mean: BLQ
  Concentration of Cryptophycin Payload, Heart, Mean: 1.39 ng/g
  Concentration of Cryptophycin Payload, Kidney, Mean: 35.9 ng/g
  Concentration of Cryptophycin Payload, Liver, Mean: 0.632 ng/g
  Concentration of Cryptophycin Payload, Plasma, Mean: 0.537 ng/mL
  Concentration of Cryptophycin Payload, Small Intestine, Mean: 0.873 ng/g
  Concentration of Cryptophycin Payload, Tumor, Mean: 2.80 ng/g
[14]
  Concentration of Cryptophycin Payload, Brain, Mean: BLQ
  Concentration of Cryptophycin Payload, Heart, Mean: BLQ
  Concentration of Cryptophycin Payload, Kidney, Mean: 3.39 ng/g
  Concentration of Cryptophycin Payload, Liver, Mean: BLQ
  Concentration of Cryptophycin Payload, Plasma, Mean: BLQ
  Concentration of Cryptophycin Payload, Small Intestine, Mean: BLQ
  Concentration of Cryptophycin Payload, Tumor, Mean: BLQ
[15]
  Concentration of Cryptophycin Payload, Brain, Mean: 8.32 ng/g
  Concentration of Cryptophycin Payload, Heart, Mean: 63.2 ng/g
  Concentration of Cryptophycin Payload, Kidney, Mean: 533 ng/g
  Concentration of Cryptophycin Payload, Liver, Mean: 6.02 ng/g
  Concentration of Cryptophycin Payload, Plasma, Mean: 493 ng/mL
  Concentration of Cryptophycin Payload, Small Intestine, Mean: 53.3 ng/g
  Concentration of Cryptophycin Payload, Tumor, Mean: 11.6 ng/g
[16]
  Concentration of Cryptophycin Payload, Brain, Mean: 1.42 ng/g
  Concentration of Cryptophycin Payload, Heart, Mean: 18.9 ng/g
  Concentration of Cryptophycin Payload, Kidney, Mean: 320 ng/g
  Concentration of Cryptophycin Payload, Liver, Mean: 1.92 ng/g
  Concentration of Cryptophycin Payload, Plasma, Mean: 36.3 ng/mL
  Concentration of Cryptophycin Payload, Small Intestine, Mean: 13.6 ng/g
  Concentration of Cryptophycin Payload, Tumor, Mean: 4.11 ng/g
[17]
  Concentration of Cryptophycin Payload, Brain, Mean: 0.673 ng/g
  Concentration of Cryptophycin Payload, Heart, Mean: 7.91 ng/g
  Concentration of Cryptophycin Payload, Kidney, Mean: 158 ng/g
  Concentration of Cryptophycin Payload, Liver, Mean: 3.32 ng/g
  Concentration of Cryptophycin Payload, Plasma, Mean: 11.0 ng/mL
  Concentration of Cryptophycin Payload, Small Intestine, Mean: 6.55 ng/g
  Concentration of Cryptophycin Payload, Tumor, Mean: 2.14 ng/g
[18]
  Concentration of Cryptophycin Payload, Brain, Mean: 0.436 ng/g
  Concentration of Cryptophycin Payload, Heart, Mean: 3.28 ng/g
  Concentration of Cryptophycin Payload, Kidney, Mean: 93.8 ng/g
  Concentration of Cryptophycin Payload, Liver, Mean: 1.29 ng/g
  Concentration of Cryptophycin Payload, Plasma, Mean: 5.30 ng/mL
  Concentration of Cryptophycin Payload, Small Intestine, Mean: 6.41 ng/g
  Concentration of Cryptophycin Payload, Tumor, Mean: 2.41 ng/g
[19]
  Concentration of Cryptophycin Payload, Brain, Mean: BLQ
  Concentration of Cryptophycin Payload, Heart, Mean: 0.885 ng/g
  Concentration of Cryptophycin Payload, Kidney, Mean: 20.4 ng/g
  Concentration of Cryptophycin Payload, Liver, Mean: 0.948 ng/g
  Concentration of Cryptophycin Payload, Plasma, Mean: 0.492 ng/mL
  Concentration of Cryptophycin Payload, Small Intestine, Mean: 2.17 ng/g
  Concentration of Cryptophycin Payload, Tumor, Mean: 1.03 ng/g
[20]
  Concentration of Cryptophycin Payload, Brain, Mean: BLQ
  Concentration of Cryptophycin Payload, Heart, Mean: BLQ
  Concentration of Cryptophycin Payload, Kidney, Mean: 3.79 ng/g
  Concentration of Cryptophycin Payload, Liver, Mean: BLQ
  Concentration of Cryptophycin Payload, Plasma, Mean: BLQ
  Concentration of Cryptophycin Payload, Small Intestine, Mean: 2.31 ng/g
  Concentration of Cryptophycin Payload, Tumor, Mean: 0.335 ng/g
[21]
  AUC(0-inf) of Cryptophycin Payload: 129 ng·h/mL
  AUC(0-t) of Cryptophycin Payload: 128 ng·h/mL
  CL of Cryptophycin Payload: 51.8 mL/min/kg
  Vss of Cryptophycin Payload: 2.28 L/kg
  t1/2 of Cryptophycin Payload: 50.9 min
[22]
  AUC(0-inf) of Cryptophycin Payload: 154 ng·h/mL
  AUC(0-t) of Cryptophycin Payload: 153 ng·h/mL
  CL of Cryptophycin Payload: 43.3 mL/min/kg
  Vss of Cryptophycin Payload: 1.15 L/kg
  t1/2 of Cryptophycin Payload: 67.8 min
[23]
  AUC(0-inf) of Cryptophycin Payload: 36.4 ng·h/g
  AUC(0-t) of Cryptophycin Payload: 34.9 ng·h/g
  t1/2 of Cryptophycin Payload: 76.2 min
  tmax of Cryptophycin Payload: 4.8 min
Small Intestine, Payload 0.4 mg/kg + CTX 16 mg/kg IV, AUC0-inf tissue/AUC0-inf plasma
  TPI of Cryptophycin Payload: 0.282 mL/g
[24]
  AUC(0-t) of Cryptophycin Payload: 81.6 ng·h/g
  tmax of Cryptophycin Payload: 4.98 min and 4.8 min
Small Intestine, Payload 0.4 mg/kg IV alone, AUC0-6 h tissue/AUC0-6 h plasma
  TPI of Cryptophycin Payload: 0.268 mL/g and 0.268^c mL/g
[25]
  AUC(0-t) of Cryptophycin Payload: 42.7 ng·h/g
  tmax of Cryptophycin Payload: 4.8 min
Tumor, Payload 0.4 mg/kg + CTX 16 mg/kg IV, AUC0-6 h tissue/AUC0-6 h plasma
  TPI of Cryptophycin Payload: 0.334 mL/g and 0.334^c mL/g
[26]
  AUC(0-inf) of Cryptophycin Payload: 28.8 ng·h/g
  AUC(0-t) of Cryptophycin Payload: 24.9 ng·h/g
  t1/2 of Cryptophycin Payload: 506 min
  tmax of Cryptophycin Payload: 4.98 min and 4.8 min
Tumor, Payload 0.4 mg/kg IV alone, AUC0-inf tissue/AUC0-inf plasma
  TPI of Cryptophycin Payload: 0.187 mL/g
